Source: EPA's ToxValDB 9.5 (doi:10.2903/j.efsa.2010.1526)
Values after ≈ are worked out from the molar mass of the structure shown.

Legend:
Apis mellifera = details: acute; duration: 48 hours; oral; unspecified; mortality
Canidae = details: chronic; duration: 1 years; oral; Dog Other; clinical chemistry
Tagia sp. = details: acute; duration: 14 days; mortality
Bibionidae = details: chronic/long-term; duration: 17 days
Rattus norvegicus = details: oral
Oncorhynchus mykiss = details: acute; duration: 96 hours; mortality
Hypoaspis aculeifer = details: chronic/long-term; duration: 14 days

C=CCOC(Cn1ccnc1)c1ccc(Cl)cc1Cl (stereo not drawn) [Imazalil]
LD50 (Apis mellifera): > 35.1 µg/piece | NOAEL (Canidae): 2.5 mg/kg-day | LC50 (Tagia sp.): 541 mg/kg | NOEC (Bibionidae): 0.181 mg/L | LD50 (Bird; acute, oral, unspecified, mortality): 510 mg/kg-day | NOEC (Bird; chronic/long-term): 24 mg/kg-day | LC50 (Bird; short-term, oral, feed, mortality): > 516 mg/kg-day | LD50 (Rattus norvegicus; acute, mortality): 227 mg/kg-day | NOAEL (Rattus norvegicus; chronic, duration: 6 months, clinical chemistry): 5 mg/kg-day | LC50 (Oncorhynchus mykiss): 1.48 µg/mL (≈ 4.98 µM) | NOEC (Hypoaspis aculeifer): 107 mg/kg | NOAEL (Oryctolagus sp.; developmental, development): 5 mg/kg-day | NOEL (Oryctolagus sp.; reproduction developmental, reproduction): 20 mg/kg-day
